Data on 20 compounds can be found in PubChem BioAssay AID330 (DTP/NCI, 2004).

“And” between values parts separate entries of the source, which are not always exact repeats. Equal entries are not always repeated. Inconclusive results and toxic doses are left out.

The test system of this experiment is P388 leukemia ip, CD2F1 mice, survival T/C. As to the kind of experiment: NCI In Vivo Anticancer Drug Screen. Data for tumor model P388 Leukemia (intraperitoneal) in CD2F1 (CDF1) mice. To be noted: endpoint: median survival time, higher = longer survival. A digest of the protocol: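 Mice carrying the transplanted tumor received test compound or vehicle. Survival was recorded in each group, and the value is the treated-group measurement divided by that of the vehicle-treated control group.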

The mark [1] stands for this setting: dose: 25.0 mg/kg/injection, schedule: Q01DX009 (ip), vehicle: other.
Setting [2] is: dose: 100.0 mg/kg/injection, schedule: Q01DX009 (ip), vehicle: other.
Where [3] appears, read: dose: 200.0 mg/kg/injection, schedule: Q01DX009 (ip), vehicle: other.
The mark [4] stands for this setting: dose: 50.0 mg/kg/injection, schedule: Q01DX005 (ip), vehicle: saline with Tween-80.
[5] abbreviates: dose: 100.0 mg/kg/injection, schedule: Q01DX005 (ip), vehicle: saline with Tween-80.
[6] abbreviates: dose: 200.0 mg/kg/injection, schedule: Q01DX005 (ip), vehicle: saline with Tween-80.
Setting [7] is: dose: 50.0 mg/kg/injection, schedule: Q01DX009 (ip), vehicle: saline with Tween-80.
The mark [8] stands for this setting: dose: 100.0 mg/kg/injection, schedule: Q01DX009 (ip), vehicle: saline with Tween-80.
[9] abbreviates: dose: 200.0 mg/kg/injection, schedule: Q01DX009 (ip), vehicle: saline with Tween-80.
Where [10] appears, read: dose: 50.0 mg/kg/injection, schedule: Q04DX003 (ip), vehicle: saline with Tween-80.
Where [11] appears, read: dose: 50.0 mg/kg/injection, schedule: Q01DX005 (ip), vehicle: Klucel (hydroxypropylcellulose) (HPC).
Where [12] appears, read: dose: 100.0 mg/kg/injection, schedule: Q01DX005 (ip), vehicle: Klucel (hydroxypropylcellulose) (HPC).
[13] abbreviates: dose: 50.0 mg/kg/injection, schedule: Q01DX009 (ip), vehicle: Klucel (hydroxypropylcellulose) (HPC).
[14] abbreviates: dose: 60.0 mg/kg/injection, schedule: Q01DX005 (ip), vehicle: saline with Tween-80.
The mark [15] stands for this setting: dose: 120.0 mg/kg/injection, schedule: Q01DX005 (ip), vehicle: saline with Tween-80.

Take `CCOC(=O)c1ccc2ccc(OC)c(OC)c2c1`: the T/C (dose: 12.5 mg/kg/injection, schedule: Q01DX009 (ip), vehicle: other) is 95 % of control; the T/C under setting [1] was 97 % of control; the T/C (dose: 50.0 mg/kg/injection, schedule: Q01DX009 (ip), vehicle: other) is 104 % of control; the T/C under setting [2] is 95 % of control; the T/C under setting [3] is 104 % of control.
Consider `Cc1ccc(S(=O)(=O)c2cnc(N)nc2N)cc1`, for which the T/C runs as follows: (dose: 100.0 mg/kg/injection, schedule: Q01DX001 (ip), vehicle: saline) 98 % of control; (dose: 200.0 mg/kg/injection, schedule: Q01DX001 (ip), vehicle: saline) 95 % of control; (dose: 400.0 mg/kg/injection, schedule: Q01DX001 (ip), vehicle: saline) 95 % of control.
For the compound `CS/C(=C1/C(=O)N(c2ccccc2)N=C1c1ccc(Cl)cc1)N1CC1`, the T/C reads like this: (dose: 25.0 mg/kg/injection, schedule: Q04DX003 (ip), vehicle: Klucel (hydroxypropylcellulose) (HPC)) 96 % of control; (dose: 50.0 mg/kg/injection, schedule: Q04DX003 (ip), vehicle: Klucel (hydroxypropylcellulose) (HPC)) 99 % of control; (dose: 100.0 mg/kg/injection, schedule: Q04DX003 (ip), vehicle: Klucel (hydroxypropylcellulose) (HPC)) 99 % of control; (dose: 200.0 mg/kg/injection, schedule: Q04DX003 (ip), vehicle: Klucel (hydroxypropylcellulose) (HPC)) 99 % of control; (dose: 400.0 mg/kg/injection, schedule: Q04DX003 (ip), vehicle: Klucel (hydroxypropylcellulose) (HPC)) 91 % of control.
Regarding `C/C=C/C(=O)Oc1ccccc1/C=C/C(=O)CCCCCC`, the T/C runs as follows: under setting [4], 92 % of control; under setting [5], 98 % of control; under setting [6], 100 % of control.
Consider `c1ccc2[nH]ncc2c1`, for which the T/C by setting is: under setting [7], 96 % of control; under setting [8], 102 % of control; under setting [9], 100 % of control.
`CC(=O)[C@]1(O)Cc2c(O)c3c(c(O)c2C(OC2CC(N=[N+]=[N-])C(O)[C@@H](CN=[N+]=[N-])O2)C1)C(=O)c1c(O)cccc1C3=O` (some centres undefined): the T/C runs as follows: (dose: 3.13 mg/kg/injection, schedule: Q04DX003 (ip), vehicle: saline with Tween-80) 93 % of control; (dose: 6.25 mg/kg/injection, schedule: Q04DX003 (ip), vehicle: saline with Tween-80) 93 % of control; (dose: 12.5 mg/kg/injection, schedule: Q04DX003 (ip), vehicle: saline with Tween-80) 96 % of control; (dose: 25.0 mg/kg/injection, schedule: Q04DX003 (ip), vehicle: saline with Tween-80) 96 % of control; under setting [10], 91 % of control; (dose: 100.0 mg/kg/injection, schedule: Q04DX003 (ip), vehicle: saline with Tween-80) 105 % of control.
With `O=P(c1ccccc1)(c1ccccc1)c1ccccc1.[Cl][Sn]([c]1ccccc1)([c]1ccccc1)[c]1ccccc1`, the T/C runs as follows: (dose: 100.0 mg/kg/injection, schedule: Q04DX003 (ip), vehicle: saline) 100 % of control; (dose: 200.0 mg/kg/injection, schedule: Q04DX003 (ip), vehicle: saline) 106 % of control; (dose: 400.0 mg/kg/injection, schedule: Q04DX003 (ip), vehicle: saline) 118 % of control.
For `C[C@]12CC[C@H]3[C@@H](CCC4=C[C@@H](OC5OCC(OC6OC(CO)C(O)C(O)C6O)C(O)C5O)CC[C@@]43C=O)[C@@]1(O)CCC2C1=CC(=O)OC1` (some centres undefined), the T/C by setting is: (dose: 0.16 mg/kg/injection, schedule: Q01DX009 (ip), vehicle: saline) 105 % of control; (dose: 0.25 mg/kg/injection, schedule: Q01DX009 (ip), vehicle: saline with Tween-80) 95 % of control; (dose: 0.31 mg/kg/injection, schedule: Q01DX009 (ip), vehicle: saline) 108 % of control; (dose: 0.5 mg/kg/injection, schedule: Q01DX009 (ip), vehicle: saline with Tween-80) 107 % of control and 95 % of control; (dose: 0.63 mg/kg/injection, schedule: Q01DX009 (ip), vehicle: saline) 103 % of control; (dose: 1.0 mg/kg/injection, schedule: Q01DX009 (ip), vehicle: saline with Tween-80) 117 % of control and 97 % of control. For the same compound, the T/C (dose: 1.25 mg/kg/injection, schedule: Q01DX009 (ip), vehicle: saline) was 103 % of control.
`O=C(NCCCCCNC(=O)C12CC3CC(CC(C3)C1)C2)C12CC3CC(CC(C3)C1)C2`: the T/C by setting is: under setting [11], 90 % of control; under setting [4], 102 % of control; under setting [12], 89 % of control; under setting [5], 105 % of control; under setting [6], 95 % of control.
Turning to `Cc1cc(Cl)ccc1N=Cc1ccc(C=Nc2ccc(Cl)cc2C)cc1`, the T/C reads like this: (dose: 12.5 mg/kg/injection, schedule: Q01DX009 (ip), vehicle: Klucel (hydroxypropylcellulose) (HPC)) 94 % of control; (dose: 25.0 mg/kg/injection, schedule: Q01DX009 (ip), vehicle: Klucel (hydroxypropylcellulose) (HPC)) 95 % of control; under setting [13], 99 % of control.
As for `O=C1OCC/C1=C/O/C=C1\CCOC1=O`, the T/C is, setting by setting: under setting [14], 106 % of control; under setting [15], 119 % of control.
As to `COc1cc(C2CC(C)(OC)Oc3cc4c(cc32)OCO4)cc(OC)c1OC` (centres undefined), the T/C is, setting by setting: under setting [14], 106 % of control and 90 % of control and 95 % of control; under setting [15], 109 % of control and 95 % of control and 97 % of control.
As to `CC(=O)c1ccc(N=C2C(=O)Nc3ccccc32)cc1`, the T/C runs as follows: (dose: 12.5 mg/kg/injection, schedule: Q01DX009 (ip), vehicle: saline with Tween-80) 93 % of control; (dose: 25.0 mg/kg/injection, schedule: Q01DX009 (ip), vehicle: saline with Tween-80) 87 % of control; under setting [7], 89 % of control and 96 % of control; under setting [8], 105 % of control; under setting [9], 116 % of control.
On to `COc1ccc(CCN(C=O)CCc2ccc(OC)c(OC)c2)cc1OC`, for which the T/C reads like this: under setting [1], 97 % of control; under setting [2], 109 % of control; under setting [3], 101 % of control; (dose: 400.0 mg/kg/injection, schedule: Q01DX009 (ip), vehicle: other) 103 % of control.
Regarding `OC[P+](CO)(CO)CO`, the T/C by setting is: (dose: 6.25 mg/kg/injection, schedule: Q01DX005 (ip), vehicle: saline with Tween-80) 117 % of control and 96 % of control; (dose: 12.5 mg/kg/injection, schedule: Q01DX005 (ip), vehicle: saline with Tween-80) 114 % of control and 96 % of control; (dose: 25.0 mg/kg/injection, schedule: Q01DX005 (ip), vehicle: saline with Tween-80) 95 % of control; under setting [4], 104 % of control and 122 % of control.
For `CN(C)c1ccc(/C=N/NC(N)=S)nc1`, the T/C under setting [10] was 150 % of control.
For the compound `CN(C)C(OCCCC(=O)O)C(Cl)(Cl)Cl` (centres undefined), the T/C is 113 % of control under setting [13]; 96 % of control (dose: 100.0 mg/kg/injection, schedule: Q01DX009 (ip), vehicle: Klucel (hydroxypropylcellulose) (HPC)); 109 % of control (dose: 200.0 mg/kg/injection, schedule: Q01DX009 (ip), vehicle: Klucel (hydroxypropylcellulose) (HPC)).
Regarding `Cc1ccc(C(C)(C)C)cc1Br`, the T/C was 95 % of control (dose: 100.0 mg/kg/injection, schedule: Q01DX001 (ip), vehicle: other); 100 % of control (dose: 200.0 mg/kg/injection, schedule: Q01DX001 (ip), vehicle: other); 88 % of control (dose: 400.0 mg/kg/injection, schedule: Q01DX001 (ip), vehicle: other).
Turning to `CNC(=O)c1ccccc1CC1(O)c2ccccc2Oc2ccccc21`, the T/C under setting [11] was 100 % of control; the T/C under setting [12] was 99 % of control; the T/C (dose: 200.0 mg/kg/injection, schedule: Q01DX005 (ip), vehicle: Klucel (hydroxypropylcellulose) (HPC)) is 96 % of control.
`COC(=O)C1=C2Nc3ccccc3C23CCN2C(O)C4(CC5CC67CCOC6CCN6CCC8(c9cccc(OC)c9N(C4)C58O)C67)C4OCCC4(C1)C23` (centres undefined): the T/C by setting is: (dose: 3.12 mg/kg/injection, schedule: Q01DX005 (ip), vehicle: Klucel (hydroxypropylcellulose) (HPC)) 96 % of control; (dose: 6.25 mg/kg/injection, schedule: Q01DX005 (ip), vehicle: Klucel (hydroxypropylcellulose) (HPC)) 99 % of control; (dose: 12.5 mg/kg/injection, schedule: Q01DX005 (ip), vehicle: Klucel (hydroxypropylcellulose) (HPC)) 99 % of control; (dose: 25.0 mg/kg/injection, schedule: Q01DX005 (ip), vehicle: Klucel (hydroxypropylcellulose) (HPC)) 87 % of control and 89 % of control.
